Laboratory results as given in patent publication US20250296938A1, “Compounds that Interact with the Ras Superfamily for the Treatment of Cancers, Inflammatory Diseases, Rasopathies, and Fibrotic Disease” (SHY Therapeutics, LLC, priority 2018, published 2025).

What follows are molecules tested on MIA PaCa-2 pancreatic cancer cell line (assay: Cell proliferation assay (DAPI)). Conditions: Homo sapiens, MIA PaCa-2.
Type: cell-based
Protocol: Cell lines: Human NSCLC cells NCI-H1975 and NCI-H1299, and tumor-derived pancreatic cancer cell lines Panc-1, MIA-PACA2, and BxPC3, were all purchased from American Type Culture Collection and grown in complete RPMI medium (BxPC3, NCI-H1975 and NCI-H1299) or DMEM-High Glucose (Panc1 and MIA-PaCa-2), supplemented with penicillin (100 U/mL), streptomycin (100 μg/mL), and 10% heat-inactivated FBS at 37° C. in a humidified incubator with 5% CO2.
Method: Cells were plated at 2000 to 5000 cells/well density in 96-wells plate and cultured ON. Small molecules to be tested were added to the cells in the final concentration of 10 µM in the presence of 0.3% DMSO and 10% FBS, and incubated for 2-4 days at 37° C. in a humidified incubator with 5% CO2. For IC50 value determination, serial dilutions of compounds were added to cells under the same conditions.
Assay: At the end of the incubation period, cell cultures were fixed with a 50-50 mixture (v/v) acetone-methanol for 10 minutes at −20° C., followed by rehydration in PBS for 10 minutes at room temperature. DNA total content was determined by staining cells with DAPI (1 ug/ml) in PBS for 10 minutes at room temperature, followed by 3 washes with PBS. After staining, DAPI fluorescence was recorded (358 nm excitation/461 nm emission) with the 96-well plate reader Molecular Devices Spectramax M3; degree of small molecule-dependent proliferation inhibition was calculated from raw data.

Compound | IC50 [µM]
COc1cccc(-c2csc3c(O)nc(-c4nccn4C)nc23)c1Cl [drawing 528] | > 1
COCCCN(C)c1nc(-c2nccn2C)nc2sc(-c3ccn(C)n3)c(-c3ccccc3)c12 [drawing 543] | > 1
Cn1ccc(-c2sc3nc(-c4nccn4C)nc(NC4CCOCC4)c3c2-c2ccccc2)n1 [drawing 546] | > 1
Cn1ccc(-c2sc3nc(-c4nccn4C)nc(N4CCC5(CCOC5)C4)c3c2-c2ccccc2)n1 (stereo not shown) [drawing 551] | > 1
COC1CCN(c2nc(-c3nccn3C)nc3sc(-c4ccn(C)n4)c(-c4ccccc4)c23)CC1 [drawing 552] | > 1
COCCCNc1nc(-c2nccn2C)nc2sc(-c3ccn(C)n3)c(-c3ccc(OC)cc3)c12 [drawing 553] | > 1
COCC(C)Nc1nc(-c2nccn2C)nc2sc(-c3ccn(C)n3)c(-c3ccc(OC)cc3)c12 (stereo not shown) [drawing 554] | > 1
COc1ccc(-c2c(-c3ccn(C)n3)sc3nc(-c4nccn4C)nc(N4CCC(OC)C4)c23)cc1 (stereo not shown) [drawing 555] | > 1
COc1cccc(-c2sc3nc(-c4nccn4C)nc(N4CCC(OC)C4)c3c2-c2cscn2)c1 (stereo not shown) [drawing 559] | > 1
COCCNc1nc(-c2nccn2C)nc2sc(-c3cc(OC)ccc3Cl)c(-c3ccc(OC)cc3)c12 [drawing 563] | > 1
COCCNc1nc(-c2nccn2C)nc2sc(-c3cc(OC)ccc3Cl)c(-c3ccccc3)c12 [drawing 568] | > 1

Same assay, conditions: Homo sapiens; 10 μM, 2-4 days, MIA PaCa-2; read-out: % Inhibition of cell proliferation, MIA PaCa-2 % inh

Compound | inhibition at 10 µM [%]
CN(Cc1ccccc1)Cc1nc(-c2ccccn2)nc(O)c1O | 0
COc1cccc(-c2csc3c(O)nc(-c4nccn4C)nc23)c1Cl [drawing 528] | 76 to 100
Cn1ccnc1-c1nc(O)c2scc(-c3ccccn3)c2n1 [drawing 529] | 76 to 100
Oc1nc(-c2ncc3n2CCCC3)nc2c(-c3ccccn3)csc12 [drawing 530] | 76 to 100
Oc1nc(-c2cn3ccccc3n2)nc2c(-c3ccccn3)csc12 [drawing 531] | 76 to 100
COCCn1ccnc1-c1nc(O)c2scc(-c3ccccn3)c2n1 [drawing 532] | 76 to 100
Cc1cc(Cn2ccnc2-c2nc(O)c3scc(-c4ccccn4)c3n2)on1 [drawing 533] | 76 to 100
Oc1nc(-c2nccn2Cc2ccccn2)nc2c(-c3ccccn3)csc12 [drawing 534] | 76 to 100
COc1cccc(Cn2ccnc2-c2nc(O)c3scc(-c4ccccn4)c3n2)c1 [drawing 535] | 76 to 100
Cc1cnc(-c2nc(O)c3scc(-c4ccccn4)c3n2)n1C [drawing 536] | 76 to 100
Cc1cn(C)c(-c2nc(O)c3scc(-c4ccccn4)c3n2)n1 [drawing 537] | 76 to 100
Oc1nc(-c2ncc3ccccn23)nc2c(-c3ccccn3)csc12 [drawing 538] | 76 to 100
Oc1nc(-c2cn3cccnc3n2)nc2c(-c3ccccn3)csc12 [drawing 539] | 0
Oc1nc(-c2cn(-c3ccccc3)cn2)nc2c(-c3ccccn3)csc12 [drawing 540] | 76 to 100
COc1ccc(Cn2cnc(-c3nc(O)c4scc(-c5ccccn5)c4n3)c2)cc1 [drawing 541] | 76 to 100
COCCCN(C)c1nc(-c2nccn2C)nc2sc(-c3ccn(C)n3)c(-c3ccccc3)c12 [drawing 543] | 76 to 100
Cn1ccc(-c2sc3nc(-c4nccn4C)nc(NC4CCOCC4)c3c2-c2ccccc2)n1 [drawing 546] | 1 to 25
Cn1ccc(-c2sc3nc(-c4nccn4C)nc(N4CCC5(CCOC5)C4)c3c2-c2ccccc2)n1 (stereo not shown) [drawing 551] | 26 to 50
COC1CCN(c2nc(-c3nccn3C)nc3sc(-c4ccn(C)n4)c(-c4ccccc4)c23)CC1 [drawing 552] | 76 to 100
COCCCNc1nc(-c2nccn2C)nc2sc(-c3ccn(C)n3)c(-c3ccc(OC)cc3)c12 [drawing 553] | 76 to 100

Compound | inhibition at 10 µM [%]
COCC(C)Nc1nc(-c2nccn2C)nc2sc(-c3ccn(C)n3)c(-c3ccc(OC)cc3)c12 (stereo not shown) [drawing 554] | 76 to 100
COc1ccc(-c2c(-c3ccn(C)n3)sc3nc(-c4nccn4C)nc(N4CCC(OC)C4)c23)cc1 (stereo not shown) [drawing 555] | 76 to 100
COC1CCN(c2nc(-c3nccn3C)nc3sc(-c4ccccc4Cl)c(-c4cscn4)c23)C1 (stereo not shown) [drawing 557] | 76 to 100
COc1cccc(-c2sc3nc(-c4nccn4C)nc(N4CCC(OC)C4)c3c2-c2cscn2)c1 (stereo not shown) [drawing 559] | 76 to 100
COCCNc1nc(-c2nccn2C)nc2sc(-c3cc(OC)ccc3Cl)c(-c3ccc(OC)cc3)c12 [drawing 563] | 76 to 100
COCCNc1nc(-c2cn(C)cn2)nc2sc(-c3cccc(OC)c3Cl)c(-c3ccc(OC)cc3)c12 [drawing 565] | 76 to 100
COCCNc1nc(-c2cn(C)cn2)nc2sc(-c3cc(OC)ccc3Cl)c(-c3ccc(OC)cc3)c12 [drawing 566] | 76 to 100
COCCNc1nc(-c2nccn2C)nc2sc(-c3cc(OC)ccc3Cl)c(-c3ccccc3)c12 [drawing 568] | 76 to 100
COc1cc(-c2sc3nc(-c4nccn4C)nc(N4CCC(OC)C4)c3c2-c2ccccc2)ccn1 (stereo not shown) [drawing 569] | 76 to 100
COC1CCN(c2nc(-c3nccn3C)nc3sc(-c4ccnn4C)c(-c4ccccc4)c23)C1 (stereo not shown) [drawing 570] | 26 to 50
COC1CCN(c2nc(-c3nccn3C)nc3sc(-c4cccnc4)c(-c4ccccc4)c23)C1 (stereo not shown) [drawing 571] | 76 to 100
COc1ccc(-c2sc3nc(-c4nccn4C)nc(N4CCC(OC)C4)c3c2-c2ccccc2)cn1 (stereo not shown) [drawing 572] | 76 to 100
COc1ncccc1-c1sc2nc(-c3nccn3C)nc(N3CCC(OC)C3)c2c1-c1ccccc1 (stereo not shown) [drawing 573] | 76 to 100
COC1CCN(c2nc(-c3nccn3C)nc3sc(-c4cnc(C5CC5)o4)c(-c4ccccc4)c23)C1 (stereo not shown) [drawing 574] | 76 to 100
COCCn1cc(-c2sc3nc(-c4nccn4C)nc(N4CCC(OC)C4)c3c2-c2ccccc2)cn1 (stereo not shown) [drawing 575] | 76 to 100
COC1CCN(c2nc(-c3nccn3C)nc3sc(-c4ccncc4C)c(-c4ccccc4)c23)C1 (stereo not shown) [drawing 576] | 76 to 100
COC1CCN(c2nc(-c3nccn3C)nc3sc(-c4cnn(C)c4)c(-c4ccccc4)c23)C1 (stereo not shown) [drawing 577] | 76 to 100
COC1CCN(c2nc(-c3nccn3C)nc3sc(-c4ccc(CO)cc4)c(-c4ccccc4)c23)C1 (stereo not shown) [drawing 578] | 76 to 100
COC1CCN(c2nc(-c3nccn3C)nc3sc(-c4ccc(N)nc4C)c(-c4ccccc4)c23)C1 (stereo not shown) [drawing 579] | 76 to 100

Same assay, conditions: Homo sapiens; 10 μM, MIA PaCa-2 (Table 5A); read-out: % Inhibition of cell proliferation, MIA PaCa-2 % inh

Compound | inhibition at 10 µM [%]
Cn1ccc(-c2sc3nc(-c4nccn4C)nc(N[C@@H]4CC[C@H](O)C4)c3c2-c2ccccc2)n1 (racemic) [drawing 644] | 26 to 50

Same assay, conditions: Homo sapiens; MIA PaCa-2 (Table 5A)

Compound | IC50 [µM]
Cn1ccc(-c2sc3nc(-c4nccn4C)nc(N[C@@H]4CC[C@H](O)C4)c3c2-c2ccccc2)n1 (racemic) [drawing 644] | > 1

The molecules below were run against T1, KRas G12D mutant (Homo sapiens, UniProt P01116, G12D) (assay: Ras GTP binding domain inhibition assay (Cy3-GTP/Cy5-GTP competition)). Conditions: at 20 μM, with SOS; read-out: KRas G12D mutant + SOS: % inh.
T1 construct: fused on or other part: His tag, used for capture on nickel-coated plates
Summary of the method: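 Compounds tested at 20 μM or in serial dilution for IC50 against nickel-captured His-tagged GTPase, 3 hours at room temperature, with or without His-Sos GEF added for last hour. Fluorescent GTP then added at 100 nM for 45 minutes; wells washed, bound label measured by fluorescence.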

Compound | inhibition at 20 µM [%]
COCCNC(=O)c1sc2nc(-c3nccn3C)nc(N[C@@H]3CC[C@H](OC)C3)c2c1-c1ccccc1 [drawing 1060] | 76 to 100
CO[C@H]1CC[C@@H](Nc2nc(-c3nccn3C)nc3sc(C(=O)N4CCCC4)c(-c4ccccc4)c23)C1 [drawing 1061] | 51 to 75
CO[C@H]1CC[C@@H](Nc2nc(-c3nccn3C)nc3sc(C(=O)N4CCOCC4)c(-c4ccccc4)c23)C1 [drawing 1062] | 51 to 75

Same assay, conditions: at 20 μM, without SOS; read-out: KRas G12D mutant: % inh.

Compound | inhibition at 20 µM [%]
COCCNC(=O)c1sc2nc(-c3nccn3C)nc(N[C@@H]3CC[C@H](OC)C3)c2c1-c1ccccc1 [drawing 1060] | 76 to 100
CO[C@H]1CC[C@@H](Nc2nc(-c3nccn3C)nc3sc(C(=O)N4CCCC4)c(-c4ccccc4)c23)C1 [drawing 1061] | 51 to 75
CO[C@H]1CC[C@@H](Nc2nc(-c3nccn3C)nc3sc(C(=O)N4CCOCC4)c(-c4ccccc4)c23)C1 [drawing 1062] | 76 to 100

Each molecule was assayed against Rac-1 (Homo sapiens, UniProt P63000) in the same assay as above. Conditions: with SOS, read-out: Rac-1 + SOS: % inh.
Summary of the method: (§1)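 First, His-tagged protein is coated on nickel wells overnight at 4 °C. Next, compound (20 μM single point or serial dilution) is added for 3 h at room temperature, with or without Sos exchange factor in the last hour. Finally, 100 nM labelled GTP binds for 45 min and retained signal is measured.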

Compound | inhibition at 20 µM [%]
COCCNC(=O)c1sc2nc(-c3nccn3C)nc(N[C@@H]3CC[C@H](OC)C3)c2c1-c1ccccc1 [drawing 1060] | 76 to 100
CO[C@H]1CC[C@@H](Nc2nc(-c3nccn3C)nc3sc(C(=O)N4CCCC4)c(-c4ccccc4)c23)C1 [drawing 1061] | 76 to 100
CO[C@H]1CC[C@@H](Nc2nc(-c3nccn3C)nc3sc(C(=O)N4CCOCC4)c(-c4ccccc4)c23)C1 [drawing 1062] | 76 to 100

Same assay, conditions: without SOS, read-out: Rac-1: % inh.

Compound | inhibition at 20 µM [%]
COCCNC(=O)c1sc2nc(-c3nccn3C)nc(N[C@@H]3CC[C@H](OC)C3)c2c1-c1ccccc1 [drawing 1060] | 76 to 100
CO[C@H]1CC[C@@H](Nc2nc(-c3nccn3C)nc3sc(C(=O)N4CCCC4)c(-c4ccccc4)c23)C1 [drawing 1061] | 76 to 100
CO[C@H]1CC[C@@H](Nc2nc(-c3nccn3C)nc3sc(C(=O)N4CCOCC4)c(-c4ccccc4)c23)C1 [drawing 1062] | 76 to 100

What follows are molecules tested against Rho-A (Homo sapiens, UniProt P61586) in the same assay as above. Conditions: with SOS, read-out: Rho-A + SOS: % inh.
Summary of the method: as §1

Compound | inhibition at 20 µM [%]
COCCNC(=O)c1sc2nc(-c3nccn3C)nc(N[C@@H]3CC[C@H](OC)C3)c2c1-c1ccccc1 [drawing 1060] | 76 to 100
CO[C@H]1CC[C@@H](Nc2nc(-c3nccn3C)nc3sc(C(=O)N4CCCC4)c(-c4ccccc4)c23)C1 [drawing 1061] | 76 to 100
CO[C@H]1CC[C@@H](Nc2nc(-c3nccn3C)nc3sc(C(=O)N4CCOCC4)c(-c4ccccc4)c23)C1 [drawing 1062] | 76 to 100

Same assay, conditions: without SOS, read-out: Rho-A: % inh.

Compound | inhibition at 20 µM [%]
COCCNC(=O)c1sc2nc(-c3nccn3C)nc(N[C@@H]3CC[C@H](OC)C3)c2c1-c1ccccc1 [drawing 1060] | 76 to 100
CO[C@H]1CC[C@@H](Nc2nc(-c3nccn3C)nc3sc(C(=O)N4CCCC4)c(-c4ccccc4)c23)C1 [drawing 1061] | 76 to 100
CO[C@H]1CC[C@@H](Nc2nc(-c3nccn3C)nc3sc(C(=O)N4CCOCC4)c(-c4ccccc4)c23)C1 [drawing 1062] | 76 to 100
